Experimental data: patent publication US20100226980A1, “NOVEL TABLET BASED ON S-ADENOSYL-METHIONINE” (VETOQUINOL, priority 2009, published 2010)

Test: Pharmacokinetic tests on dogs
Format: in vivo
Experimental: In order to confirm the results obtained in vitro, pharmacokinetic tests were carried out on dogs.

degradation of SAMe (after administration of tablet): not degraded | pharmacokinetic profiles of the different dogs (variability between animals): homogeneous and vary very little
SMILES: C[S+](CC[C@H](N)C(=O)O)C[C@H]1O[C@@H](n2cnc3c(N)ncnc32)[C@H](O)[C@@H]1O.Cc1ccc(S(=O)(=O)[O-])cc1 (stereo partly drawn) [SAMe, S-Adenosyl-Methionine Paratoluene Sulphonate]
absorption of SAMe (after administration of tablet): absorbed in the stomach as soon as it is administered
